Results reported in the supplement of paper PMC4976141.
± gives the uncertainty stated by the source.

How the values were obtained:
COLO-205 [1] = test: % viability in DMSO, miRNA mimic relative to NTC in DMSO; higher = less cytotoxic; details: drug used in drug arm: AZ628 1 uM; treatment: DMSO
Method: (§1)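 26 miRNA mimics were transfected into 8 cancer cell lines in triplicate. 48 h post-transfection, cells were treated 72 h with DMSO or a line-specific drug, then recovered 72 h drug-free. Drugs: COLO-205 AZ628 1 uM, MKN-45 crizotinib 1 uM, NCI-H596 paclitaxel 6 uM, EVSA-T GDC-0980 2.5 uM, M14 AZ628 1 uM, HCC-1954 GDC-0980 2.5 uM, NCI-H441 carboplatin 2.5 uM, SKBr3 lapatinib 1 uM. Surviving cells are expressed as % of NTC-transfected cells in DMSO (the NTC drug arm itself is about 30-50%), mean +- SEM.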

EVSA-T [2] = test: as above; details: drug used in drug arm: GDC-0980 2.5 uM; treatment: DMSO
Method: as §1

HCC-1954 [3] = test: as above; details: drug used in drug arm: GDC-0980 2.5 uM; treatment: DMSO
Method: as §1

M14 [4] = test: as above; details: drug used in drug arm: AZ628 1 uM; treatment: DMSO
Method: as §1

MKN-45 [5] = test: as above; details: drug used in drug arm: crizotinib 1 uM; treatment: DMSO
Method: as §1

NCI-H441 [6] = test: as above; details: drug used in drug arm: carboplatin 2.5 uM; treatment: DMSO
Method: as §1

NCI-H596 [7] = test: as above; details: drug used in drug arm: paclitaxel 6 uM; treatment: DMSO
Method: as §1

SK-BR-3 [8] = test: as above; details: drug used in drug arm: lapatinib 1 uM; treatment: DMSO
Method: as §1

COLO-205 [9] = test: % viability under drug (72 h drug + 72 h recovery), miRNA mimic relative to NTC in DMSO; higher = more surviving cells; details: drug used in drug arm: AZ628 1 uM; treatment: drug
Method: as §1

EVSA-T [10] = test: as above; details: drug used in drug arm: GDC-0980 2.5 uM; treatment: drug
Method: as §1

HCC-1954 [11] = test: as above; details: drug used in drug arm: GDC-0980 2.5 uM; treatment: drug
Method: as §1

M14 [12] = test: as above; details: drug used in drug arm: AZ628 1 uM; treatment: drug
Method: as §1

MKN-45 [13] = test: as above; details: drug used in drug arm: crizotinib 1 uM; treatment: drug
Method: as §1

NCI-H441 [14] = test: as above; details: drug used in drug arm: carboplatin 2.5 uM; treatment: drug
Method: as §1

NCI-H596 [15] = test: as above; details: drug used in drug arm: paclitaxel 6 uM; treatment: drug
Method: as §1

SK-BR-3 [16] = test: as above; details: drug used in drug arm: lapatinib 1 uM; treatment: drug
Method: as §1

PC9 = test: cell count fold change with erlotinib, miRNA mimic vs non-targeting control (log2 ratio); higher = more drug-tolerant survivors than NTC; details: erlotinib 1 µM; 72 h drug + 72 h drug-free recovery; perturbation: miRNA mimic

## CAAAAGUAAUUGUGGAUUUUGU
COLO-205 [1]
  % viability in DMSO: 106 ± 1.7%
EVSA-T [2]
  % viability in DMSO: 39.3 ± 3.4%
HCC-1954 [3]
  % viability in DMSO: 88.3 ± 15%
M14 [4]
  % viability in DMSO: 62.9 ± 9%
MKN-45 [5]
  % viability in DMSO: 40.7 ± 3.5%
NCI-H441 [6]
  % viability in DMSO: 62.3 ± 2.6%
NCI-H596 [7]
  % viability in DMSO: 73.6 ± 2.9%
SK-BR-3 [8]
  % viability in DMSO: 46.3 ± 3.1%
COLO-205 [9]
  % viability under drug: 44.6 ± 3.2%
EVSA-T [10]
  % viability under drug: 0.243 ± 0.018%
HCC-1954 [11]
  % viability under drug: 1.55 ± 0.17%
M14 [12]
  % viability under drug: 14.1 ± 0.89%
MKN-45 [13]
  % viability under drug: 1.49 ± 0.11%
NCI-H441 [14]
  % viability under drug: 13.6 ± 2%
NCI-H596 [15]
  % viability under drug: 0.808 ± 0.028%
SK-BR-3 [16]
  % viability under drug: 20.2 ± 1.6%
PC9
  cell count fold change with erlotinib: -2.88

## UCUACAAAGGAAAGCGCUUUCU
COLO-205 [1]
  % viability in DMSO: 109 ± 3.9%
EVSA-T [2]
  % viability in DMSO: 37.4 ± 6.7%
HCC-1954 [3]
  % viability in DMSO: 68.8 ± 1.8%
M14 [4]
  % viability in DMSO: 63 ± 19%
MKN-45 [5]
  % viability in DMSO: 48.8 ± 8.7%
NCI-H441 [6]
  % viability in DMSO: 41.8 ± 3.1%
NCI-H596 [7]
  % viability in DMSO: 80.5 ± 9.8%
SK-BR-3 [8]
  % viability in DMSO: 49.1 ± 3.5%
COLO-205 [9]
  % viability under drug: 47.79 ± 0.091%
EVSA-T [10]
  % viability under drug: 1.13 ± 0.19%
HCC-1954 [11]
  % viability under drug: 2.02 ± 0.14%
M14 [12]
  % viability under drug: 6.38 ± 0.2%
MKN-45 [13]
  % viability under drug: 1.63 ± 0.29%
NCI-H441 [14]
  % viability under drug: 12.8 ± 1.1%
NCI-H596 [15]
  % viability under drug: 2.12 ± 0.19%
SK-BR-3 [16]
  % viability under drug: 26 ± 2.1%
PC9
  cell count fold change with erlotinib: 0.22

## UGUCAGUUUGUCAAAUACCCCA
COLO-205 [1]
  % viability in DMSO: 98.3 ± 4.3%
EVSA-T [2]
  % viability in DMSO: 28 ± 2.1%
HCC-1954 [3]
  % viability in DMSO: 31.9 ± 3.4%
M14 [4]
  % viability in DMSO: 129 ± 10%
MKN-45 [5]
  % viability in DMSO: 142 ± 23%
NCI-H441 [6]
  % viability in DMSO: 27.3 ± 6.4%
NCI-H596 [7]
  % viability in DMSO: 22.8 ± 1.2%
SK-BR-3 [8]
  % viability in DMSO: 104 ± 12%
COLO-205 [9]
  % viability under drug: 38 ± 0.5%
EVSA-T [10]
  % viability under drug: 0.172 ± 0.0035%
HCC-1954 [11]
  % viability under drug: 0.617 ± 0.0095%
M14 [12]
  % viability under drug: 16.4 ± 2.8%
MKN-45 [13]
  % viability under drug: 2.37 ± 0.29%
NCI-H441 [14]
  % viability under drug: 5.55 ± 0.62%
NCI-H596 [15]
  % viability under drug: 0.42 ± 0.093%
SK-BR-3 [16]
  % viability under drug: 27.4 ± 1.9%
PC9
  cell count fold change with erlotinib: -5.21

## AAGUGCCGCCAUCUUUUGAGUGU
COLO-205 [1]
  % viability in DMSO: 100.8 ± 0.28%
EVSA-T [2]
  % viability in DMSO: 12.3 ± 1.3%
HCC-1954 [3]
  % viability in DMSO: 11.8 ± 0.37%
M14 [4]
  % viability in DMSO: 15.7 ± 1.4%
MKN-45 [5]
  % viability in DMSO: 35.27 ± 0.22%
NCI-H441 [6]
  % viability in DMSO: 13.71 ± 0.039%
NCI-H596 [7]
  % viability in DMSO: 37.5 ± 5.6%
SK-BR-3 [8]
  % viability in DMSO: 22.2 ± 6.5%
COLO-205 [9]
  % viability under drug: 30.8 ± 0.9%
EVSA-T [10]
  % viability under drug: 0.157%
HCC-1954 [11]
  % viability under drug: 0.919 ± 0.19%
M14 [12]
  % viability under drug: 1.98 ± 0.13%
MKN-45 [13]
  % viability under drug: 0.444 ± 0.042%
NCI-H441 [14]
  % viability under drug: 7.71 ± 2.4%
NCI-H596 [15]
  % viability under drug: 0.265 ± 0.011%
SK-BR-3 [16]
  % viability under drug: 8.32 ± 0.77%
PC9
  cell count fold change with erlotinib: -4.45
